According to US10392391B2 (Vertex Pharmaceuticals Incorporated, priority 2012, dated 2019):

Biological target: ATR kinase (full-length ATR) (Homo sapiens (Human), UniProt Q13535)
Assay: ATR inhibition assay (radioactive-phosphate incorporation)
Type: biochemical
Conditions: Ki(app), 5 nM full-length ATR, 10 μM ATP, 25° C.
Outline: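 Ki(app) was fitted by non-linear regression to background-corrected initial rates. Full-length ATR (5 nM) phosphorylated 800 μM peptide using 10 μM [γ-33P]ATP at 25° C in Tris/HCl pH 7.5 buffer with MgCl2, DTT and 7% DMSO. After 10-minute compound pre-incubation and 24-hour reaction, phosphocellulose filters were scintillation counted.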

Chain of ATR kinase (full-length ATR) (Q13535 whole entry): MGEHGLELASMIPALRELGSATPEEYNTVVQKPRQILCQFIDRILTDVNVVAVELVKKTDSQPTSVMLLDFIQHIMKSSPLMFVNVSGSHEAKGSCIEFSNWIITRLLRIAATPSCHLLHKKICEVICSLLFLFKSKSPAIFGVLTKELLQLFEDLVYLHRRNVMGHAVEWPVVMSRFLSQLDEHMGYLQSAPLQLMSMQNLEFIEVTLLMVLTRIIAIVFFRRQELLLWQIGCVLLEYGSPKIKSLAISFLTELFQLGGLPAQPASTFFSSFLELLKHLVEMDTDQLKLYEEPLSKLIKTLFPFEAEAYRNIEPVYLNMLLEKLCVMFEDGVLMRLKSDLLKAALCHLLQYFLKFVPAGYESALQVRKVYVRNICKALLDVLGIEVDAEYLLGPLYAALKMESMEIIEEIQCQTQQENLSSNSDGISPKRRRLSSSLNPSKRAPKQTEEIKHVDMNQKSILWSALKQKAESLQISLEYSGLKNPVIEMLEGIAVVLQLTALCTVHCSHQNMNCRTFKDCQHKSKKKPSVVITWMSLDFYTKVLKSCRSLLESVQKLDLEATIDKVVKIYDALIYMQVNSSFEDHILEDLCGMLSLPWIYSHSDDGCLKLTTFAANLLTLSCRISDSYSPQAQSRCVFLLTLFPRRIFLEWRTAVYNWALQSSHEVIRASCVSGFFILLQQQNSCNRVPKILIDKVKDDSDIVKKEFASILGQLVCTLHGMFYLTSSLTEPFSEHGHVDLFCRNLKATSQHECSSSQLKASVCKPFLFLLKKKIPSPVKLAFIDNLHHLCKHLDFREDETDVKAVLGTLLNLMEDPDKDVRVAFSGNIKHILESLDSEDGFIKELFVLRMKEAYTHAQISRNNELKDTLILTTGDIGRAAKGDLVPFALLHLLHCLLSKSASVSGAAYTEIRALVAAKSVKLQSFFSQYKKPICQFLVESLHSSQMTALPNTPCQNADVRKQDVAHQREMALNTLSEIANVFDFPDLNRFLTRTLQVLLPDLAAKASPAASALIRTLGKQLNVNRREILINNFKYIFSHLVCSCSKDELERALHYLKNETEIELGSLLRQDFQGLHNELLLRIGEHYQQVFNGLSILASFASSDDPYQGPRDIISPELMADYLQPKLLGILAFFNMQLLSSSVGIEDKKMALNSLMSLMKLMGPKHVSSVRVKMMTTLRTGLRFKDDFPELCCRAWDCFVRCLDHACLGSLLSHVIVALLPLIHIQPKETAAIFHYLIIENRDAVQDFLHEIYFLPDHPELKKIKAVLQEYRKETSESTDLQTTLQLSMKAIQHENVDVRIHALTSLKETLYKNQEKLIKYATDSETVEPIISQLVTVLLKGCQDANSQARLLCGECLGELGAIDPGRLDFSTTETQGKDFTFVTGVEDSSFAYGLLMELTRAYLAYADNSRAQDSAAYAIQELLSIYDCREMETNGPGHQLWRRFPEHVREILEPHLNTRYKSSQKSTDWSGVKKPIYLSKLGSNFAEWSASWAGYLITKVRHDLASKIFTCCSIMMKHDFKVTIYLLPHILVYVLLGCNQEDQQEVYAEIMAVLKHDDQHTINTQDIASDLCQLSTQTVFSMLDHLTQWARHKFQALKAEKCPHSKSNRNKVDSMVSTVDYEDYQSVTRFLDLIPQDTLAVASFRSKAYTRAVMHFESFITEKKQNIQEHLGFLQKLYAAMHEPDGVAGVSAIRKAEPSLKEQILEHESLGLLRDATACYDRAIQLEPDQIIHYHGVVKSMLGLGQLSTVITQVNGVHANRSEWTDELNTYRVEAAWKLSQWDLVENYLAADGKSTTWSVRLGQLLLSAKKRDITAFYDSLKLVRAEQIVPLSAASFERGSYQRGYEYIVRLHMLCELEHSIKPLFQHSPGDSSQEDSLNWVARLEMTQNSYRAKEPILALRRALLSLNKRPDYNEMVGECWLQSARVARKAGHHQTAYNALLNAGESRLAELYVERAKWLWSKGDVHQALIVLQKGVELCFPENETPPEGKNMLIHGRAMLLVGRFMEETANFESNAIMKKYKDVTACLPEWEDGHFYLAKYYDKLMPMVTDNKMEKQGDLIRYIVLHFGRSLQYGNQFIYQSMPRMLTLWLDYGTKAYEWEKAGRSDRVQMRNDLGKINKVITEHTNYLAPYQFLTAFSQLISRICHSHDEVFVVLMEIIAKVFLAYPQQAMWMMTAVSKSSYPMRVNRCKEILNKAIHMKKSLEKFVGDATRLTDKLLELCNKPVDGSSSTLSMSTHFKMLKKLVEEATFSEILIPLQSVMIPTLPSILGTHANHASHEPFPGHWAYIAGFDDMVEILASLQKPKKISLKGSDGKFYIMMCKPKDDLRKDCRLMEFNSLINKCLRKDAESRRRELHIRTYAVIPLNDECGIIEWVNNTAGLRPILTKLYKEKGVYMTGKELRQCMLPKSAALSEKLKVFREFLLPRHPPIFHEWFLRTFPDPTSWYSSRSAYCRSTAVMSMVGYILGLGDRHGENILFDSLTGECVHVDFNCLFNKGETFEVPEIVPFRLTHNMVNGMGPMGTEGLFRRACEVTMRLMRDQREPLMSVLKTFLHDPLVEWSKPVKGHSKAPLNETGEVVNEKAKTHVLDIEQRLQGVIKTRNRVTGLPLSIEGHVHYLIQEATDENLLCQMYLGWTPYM

Ki [nM]	Structure (SMILES)
10 to 1000	Nc1nn2cc(Cl)cnc2c1C(=O)Nc1cnccc1OCCCO [I-O-53, 2-amino-6-chloro-N-(4-(3-hydroxypropoxy)pyridin-3-yl)pyrazolo[1,5-a]pyrimidine-3-carboxamide]
10 to 1000	Nc1nn2cc(Cl)cnc2c1C(=O)Nc1cnccc1O[C@@H]1CCOC1 [I-O-54, (R)-2-amino-6-chloro-N-(4-((tetrahydrofuran-3-yl)oxy)pyridin-3-yl)pyrazolo[1,5-a]pyrimidine-3-carboxamide]
10 to 1000	COCCOc1ccncc1NC(=O)c1c(N)nn2cc(Cl)cnc12 [I-O-55, 2-amino-6-chloro-N-(4-(2-methoxyethoxy)pyridin-3-yl)pyrazolo[1,5-a]pyrimidine-3-carboxamide]
10 to 1000	CCOc1ccncc1NC(=O)c1c(N)nn2cc(Cl)cnc12 [I-O-56, 2-amino-6-chloro-N-(4-ethoxypyridin-3-yl)pyrazolo[1,5-a]pyrimidine-3-carboxamide]
10 to 1000	COc1ccncc1NC(=O)c1c(N)nn2cc(Cl)cnc12 [I-O-57, 2-amino-6-chloro-N-(4-methoxypyridin-3-yl)pyrazolo[1,5-a]pyrimidine-3-carboxamide]
10 to 1000	Nc1nn2cc(Cl)cnc2c1C(=O)Nc1cnccc1O[C@H]1CCOC1 [I-O-58, (S)-2-amino-6-chloro-N-(4-((tetrahydrofuran-3-yl)oxy)pyridin-3-yl)pyrazolo[1,5-a]pyrimidine-3-carboxamide]
10 to 1000	Nc1nn2cc(Cl)cnc2c1C(=O)Nc1cnccc1OCC(F)(F)F [I-O-59, 2-amino-6-chloro-N-(4-(2,2,2-trifluoroethoxy)pyridin-3-yl)pyrazolo[1,5-a]pyrimidine-3-carboxamide]
10 to 1000	Nc1nn2cc(Cl)cnc2c1C(=O)Nc1cnccc1OCCN1CCOCC1 [I-O-60, 2-amino-6-chloro-N-(4-(2-morpholinoethoxy)pyridin-3-yl)pyrazolo[1,5-a]pyrimidine-3-carboxamide]
10 to 1000	Nc1nn2cc(Cl)cnc2c1C(=O)Nc1cnccc1OC1CCOCC1 [I-O-61, 2-amino-6-chloro-N-(4-((tetrahydro-2H-pyran-4-yl)oxy)pyridin-3-yl)pyrazolo[1,5-a]pyrimidine-3-carboxamide]
10 to 1000	CN1CC[C@@H](Oc2ccncc2NC(=O)c2c(N)nn3cc(Cl)cnc23)C1 [I-O-63, (R)-2-amino-6-chloro-N-(4-((1-methylpyrrolidin-3-yl)oxy)pyridin-3-yl)pyrazolo[1,5-a]pyrimidine-3-carboxamide]
10 to 1000	CN1CCC(Oc2ccncc2NC(=O)c2c(N)nn3cc(Cl)cnc23)CC1 [I-O-64, 2-amino-6-chloro-N-(4-((1-methylpiperidin-4-yl)oxy)pyridin-3-yl)pyrazolo[1,5-a]pyrimidine-3-carboxamide]
10 to 1000	Nc1nn2cc(Cl)cnc2c1C(=O)Nc1cnccc1OC1CCCOC1 (centres unmarked) [I-O-65, 2-amino-6-chloro-N-(4-((tetrahydro-2H-pyran-3-yl)oxy)pyridin-3-yl)pyrazolo[1,5-a]pyrimidine-3-carboxamide]
10 to 1000	Nc1nn2cc(Cl)cnc2c1C(=O)Nc1cnccc1OCCO [I-O-66, 2-amino-6-chloro-N-(4-(2-hydroxyethoxy)pyridin-3-yl)pyrazolo[1,5-a]pyrimidine-3-carboxamide]
10 to 1000	COCCN1CCC[C@H](Oc2ccncc2NC(=O)c2c(N)nn3cc(Cl)cnc23)C1 [I-O-67, (S)-2-amino-6-chloro-N-(4-((1-(2-methoxyethyl)piperidin-3-yl)oxy)pyridin-3-yl)pyrazolo[1,5-a]pyrimidine-3-carboxamide]
10 to 1000	CN(C)CCOc1cc(Cl)ncc1NC(=O)c1c(N)nn2cc(Cl)cnc12 [I-O-68, 2-amino-6-chloro-N-(6-chloro-4-(2-(dimethylamino)ethoxy)pyridin-3-yl)pyrazolo[1,5-a]pyrimidine-3-carboxamide]
10 to 1000	CN1CC[C@H](Oc2ccncc2NC(=O)c2c(N)nn3cc(Cl)cnc23)C1 [I-O-69, (S)-2-amino-6-chloro-N-(4-((1-methylpyrrolidin-3-yl)oxy)pyridin-3-yl)pyrazolo[1,5-a]pyrimidine-3-carboxamide]
10 to 1000	Nc1nn2cc(Cl)cnc2c1C(=O)Nc1cnccc1Oc1cccnc1 [I-O-70, 2-amino-6-chloro-N-(4-(pyridin-3-yloxy)pyridin-3-yl)pyrazolo[1,5-a]pyrimidine-3-carboxamide]
10 to 1000	CN(C)CCOc1cc(C(F)(F)F)ncc1NC(=O)c1c(N)nn2cc(Cl)cnc12 [I-O-71, 2-amino-6-chloro-N-(4-(2-(dimethylamino)ethoxy)-6-(trifluoromethyl)pyridin-3-yl)pyrazolo[1,5-a]pyrimidine-3-carboxamide]

Ki [nM]	Structure (SMILES)
10 to 1000	Nc1nn2cc(Cl)cnc2c1C(=O)Nc1cnccc1OC1CC2(CNC2)C1 [I-O-72, N-(4-(2-azaspiro[3.3]heptan-6-yloxy)pyridin-3-yl)-2-amino-6-chloropyrazolo[1,5-a]pyrimidine-3-carboxamide]
10 to 1000	Nc1nn2cc(Cl)cnc2c1C(=O)Nc1cnccc1OC1CNC1 [I-O-73, 2-amino-N-(4-(azetidin-3-yloxy)pyridin-3-yl)-6-chloropyrazolo[1,5-a]pyrimidine-3-carboxamide]
10 to 1000	Nc1nn2cc(Cl)cnc2c1C(=O)Nc1cnccc1O[C@H]1CCCNC1 [I-O-74, (S)-2-amino-6-chloro-N-(4-(piperidin-3-yloxy)pyridin-3-yl)pyrazolo[1,5-a]pyrimidine-3-carboxamide]
10 to 1000	Nc1nn2cc(Cl)cnc2c1C(=O)Nc1cnccc1OC1CCCNC1 (centres unmarked) [I-O-75, 2-amino-6-chloro-N-(4-(piperidin-3-yloxy)pyridin-3-yl)pyrazolo[1,5-a]pyrimidine-3-carboxamide]
10 to 1000	Nc1nn2cc(Cl)cnc2c1C(=O)Nc1cnccc1O[C@H]1CCNC1 [I-O-76, (S)-2-amino-6-chloro-N-(4-(pyrrolidin-3-yloxy)pyridin-3-yl)pyrazolo[1,5-a]pyrimidine-3-carboxamide]
10 to 1000	Nc1nn2cc(Cl)cnc2c1C(=O)Nc1cnccc1O[C@@H]1CCNC1 [I-O-77, (R)-2-amino-6-chloro-N-(4-(pyrrolidin-3-yloxy)pyridin-3-yl)pyrazolo[1,5-a]pyrimidine-3-carboxamide]
10 to 1000	Nc1nn2cc(Cl)cnc2c1C(=O)Nc1cnccc1O[C@H]1C[C@]2(CCN2)C1 [I-O-78, N-(4-((4s,6r)-1-azaspiro[3.3]heptan-6-yloxy)pyridin-3-yl)-2-amino-6-chloropyrazolo[1,5-a]pyrimidine-3-carboxamide]
10 to 1000	Nc1nn2cc(Cl)cnc2c1C(=O)Nc1cnccc1OC1CCNCC1 [I-O-80, 2-amino-6-chloro-N-(4-(piperidin-4-yloxy)pyridin-3-yl)pyrazolo[1,5-a]pyrimidine-3-carboxamide]
10 to 1000	Nc1nn2cc(Cl)cnc2c1C(=O)Nc1cnccc1O[C@@H]1CCCNC1 [I-O-81, (R)-2-amino-6-chloro-N-(4-(piperidin-3-yloxy)pyridin-3-yl)pyrazolo[1,5-a]pyrimidine-3-carboxamide]
< 10	N#CCc1cnc2c(C(=O)Nc3cnccc3OC3CNC3)c(N)nn2c1 [I-O-82, 2-amino-N-(4-(azetidin-3-yloxy)pyridin-3-yl)-6-(cyanomethyl)pyrazolo[1,5-a]pyrimidine-3-carboxamide]
< 10	N#CCc1cnc2c(C(=O)Nc3cnccc3OCCN)c(N)nn2c1 [I-O-83, 2-amino-N-(4-(2-aminoethoxy)pyridin-3-yl)-6-(cyanomethyl)pyrazolo[1,5-a]pyrimidine-3-carboxamide]
< 10	N#CCc1cnc2c(C(=O)Nc3cnccc3OC3CCNCC3)c(N)nn2c1 [I-O-84, 2-amino-6-(cyanomethyl)-N-(4-(piperidin-4-yloxy)pyridin-3-yl)pyrazolo[1,5-a]pyrimidine-3-carboxamide]
10 to 1000	Nc1nn2cc(F)cnc2c1C(=O)Nc1cnccc1O[C@H]1CCCNC1 [I-O-85, (S)-2-amino-6-fluoro-N-(4-(piperidin-3-yloxy)pyridin-3-yl)pyrazolo[1,5-a]pyrimidine-3-carboxamide]
10 to 1000	N#CCc1cnc2c(C(=O)Nc3cnccc3O[C@@H]3CCNC3)c(N)nn2c1 [I-O-87, (R)-2-amino-6-(cyanomethyl)-N-(4-(pyrrolidin-3-yloxy)pyridin-3-yl)pyrazolo[1,5-a]pyrimidine-3-carboxamide]
10 to 1000	CN1CCC(Oc2c(F)cncc2NC(=O)c2c(N)nn3cc(F)cnc23)CC1 [I-O-89, 2-amino-6-fluoro-N-(5-fluoro-4-((1-methylpiperidin-4-yl)oxy)pyridin-3-yl)pyrazolo[1,5-a]pyrimidine-3-carboxamide]
10 to 1000	CNc1cc(OC)c(NC(=O)c2c(N)nn3cc(F)cnc23)cn1 [I-O-90, 2-amino-6-fluoro-N-(4-methoxy-6-(methylamino)pyridin-3-yl)pyrazolo[1,5-a]pyrimidine-3-carboxamide]
10 to 1000	Nc1nn2cc(F)cnc2c1C(=O)Nc1cncc(F)c1OC1CCN(C2COC2)CC1 [I-O-91, 2-amino-6-fluoro-N-(5-fluoro-4-((1-(oxetan-3-yl)piperidin-4-yl)oxy)pyridin-3-yl)pyrazolo[1,5-a]pyrimidine-3-carboxamide]
10 to 1000	Nc1nn2cc(F)cnc2c1C(=O)Nc1cnccc1OC1COC1 [I-O-92, 2-amino-6-fluoro-N-(4-(oxetan-3-yloxy)pyridin-3-yl)pyrazolo[1,5-a]pyrimidine-3-carboxamide]

Structure (SMILES)	Ki [nM]
Nc1nn2cc(Cl)cnc2c1C(=O)Nc1cnccc1OC1CN2CCC1CC2 (centres unmarked) [I-O-62, 2-amino-6-chloro-N-(4-(quinuclidin-3-yloxy)pyridin-3-yl)pyrazolo[1,5-a]pyrimidine-3-carboxamide]	10 to 1000
CC(C)(C)Oc1ccncc1NC(=O)c1c(N)nn2cc(F)cnc12 [I-O-88, 2-amino-N-(4-(tert-butoxy)pyridin-3-yl)-6-fluoropyrazolo[1,5-a]pyrimidine-3-carboxamide]	10 to 1000
